Measurements as given in patent US7524853B2 (Solvay Pharmaceuticals B.V., priority 2003, dated 2009).

Legend:
Assay type in all cases: cell-based
[1] = target: T1, 17β-hydroxysteroid dehydrogenase type 2 (17β-HSD type 2) (Homo sapiens, UniProt P37059); test: Inhibition of 17β-HSD type 2 in MCF-7 cells stably expressing the isoenzyme (tritium labeled estradiol conversion, HPLC); conditions: MCF7, MCF-7 cells expressing 17β-HSD type 2, 2 nM tritium labeled estradiol; for inhibition at 1 µM: 1 μM test compound, read-out: % Inhibition HSD2 1 μM; for inhibition at 10 µM: 10 μM test compound, read-out: % Inhibition HSD2 10 μM
T1 construct: expressed in transfected cells; host or cells: MCF-7
T1 sequence (P37059 1-387): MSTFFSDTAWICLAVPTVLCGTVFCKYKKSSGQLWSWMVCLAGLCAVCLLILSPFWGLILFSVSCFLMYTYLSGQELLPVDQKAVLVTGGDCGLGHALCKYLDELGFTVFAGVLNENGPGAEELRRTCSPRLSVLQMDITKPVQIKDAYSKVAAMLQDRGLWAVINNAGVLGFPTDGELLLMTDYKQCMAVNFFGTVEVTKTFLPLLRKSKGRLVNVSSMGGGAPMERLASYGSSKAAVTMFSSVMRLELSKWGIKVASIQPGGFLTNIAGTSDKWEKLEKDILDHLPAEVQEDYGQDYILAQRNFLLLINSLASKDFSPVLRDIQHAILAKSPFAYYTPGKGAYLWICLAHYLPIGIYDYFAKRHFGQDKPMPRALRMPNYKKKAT
Outline: (§1)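 Cells: stable MCF-7 transfectants per isoenzyme. Step one, add compound (two concentrations) plus 2 nM labelled substrate to growth medium. Step two, remove medium at a set time and stop with trichloroacetic acid. Step three, quantify conversion by HPLC with flow scintillation.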

[2] = target: T2, 17β-hydroxysteroid dehydrogenase type 3 (17β-HSD type 3) (Homo sapiens, UniProt P37058); test: Inhibition of 17β-HSD type 3 in MCF-7 cells stably expressing the isoenzyme (tritium labeled androstenedione conversion, HPLC); conditions: MCF7, MCF-7 cells expressing 17β-HSD type 3, 2 nM tritium labeled androstenedione; for inhibition at 1 µM: 1 μM test compound, read-out: % Inhibition HSD3 1 μM; for inhibition at 10 µM: 10 μM test compound, read-out: % Inhibition HSD3 10 μM
T2 construct: expressed in transfected cells; host or cells: MCF-7
T2 sequence (P37058 1-310): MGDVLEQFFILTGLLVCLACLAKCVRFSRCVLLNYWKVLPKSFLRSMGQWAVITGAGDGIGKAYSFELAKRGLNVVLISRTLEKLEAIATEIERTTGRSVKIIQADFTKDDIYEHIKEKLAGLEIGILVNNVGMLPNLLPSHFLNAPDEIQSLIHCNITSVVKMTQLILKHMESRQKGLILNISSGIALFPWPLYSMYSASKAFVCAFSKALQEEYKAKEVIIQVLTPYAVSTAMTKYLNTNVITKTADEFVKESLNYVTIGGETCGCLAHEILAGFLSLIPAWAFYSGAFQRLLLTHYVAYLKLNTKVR
Outline: as §1

[3] = target: T3, 17β-hydroxysteroid dehydrogenase type 1 (17β-HSD type 1) (Homo sapiens, UniProt P14061); test: Inhibition of 17β-HSD type 1 in MCF-7 cells stably expressing the isoenzyme (tritium labeled estrone conversion, HPLC); conditions: MCF7, MCF-7 cells expressing 17β-HSD type 1, 2 nM tritium labeled estrone; for inhibition at 1 µM: 1 μM test compound, read-out: % Inhibition HSD1 1 μM; for inhibition at 10 µM: 10 μM test compound, read-out: % Inhibition HSD1 10 μM
T3 construct: expressed in transfected cells; host or cells: MCF-7
T3 sequence (P14061 1-328): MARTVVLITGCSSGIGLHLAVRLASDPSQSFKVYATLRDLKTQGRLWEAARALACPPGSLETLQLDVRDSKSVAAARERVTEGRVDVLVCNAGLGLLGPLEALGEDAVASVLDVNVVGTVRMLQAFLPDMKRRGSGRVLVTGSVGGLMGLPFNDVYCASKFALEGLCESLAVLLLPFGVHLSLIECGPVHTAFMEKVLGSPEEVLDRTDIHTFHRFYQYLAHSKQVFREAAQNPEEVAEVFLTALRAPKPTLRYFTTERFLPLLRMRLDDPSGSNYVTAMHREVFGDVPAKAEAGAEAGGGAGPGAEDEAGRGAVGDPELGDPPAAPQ
Outline: as §1

O=C1c2sc3nc(-c4ccc(Br)s4)n(Cc4ccccc4)c(=O)c3c2CCC1(Br)Br [No. 66, 3-Benzyl-7,7-dibromo-2-(5-bromothiophen-2-yl)-6,7-dihydro-3H,5H-benzo[4,5]thieno[2,3-d]pyrimidine-4,8-dione]
inhibition at 1 µM [1]: 27% | inhibition at 10 µM [1]: 37.6% | inhibition at 1 µM [2]: 0.3% | inhibition at 10 µM [2]: 7.4% | inhibition at 1 µM [3]: 7.8% | inhibition at 10 µM [3]: 8.9%

O=c1c2c(nc(-c3cccs3)n1Cc1ccccc1)sc1c(O)cccc12 [No. 67, 3-Benzyl-8-hydroxy-2-thiophen-2-yl-3H-benzo[4,5]thieno[2,3-d]pyrimidine-4-one]
inhibition at 1 µM [1]: 55.2% | inhibition at 10 µM [1]: 80.3% | inhibition at 1 µM [2]: 19.1% | inhibition at 10 µM [2]: 33.4% | inhibition at 1 µM [3]: 14.7% | inhibition at 10 µM [3]: 29.6%

O=c1c2c(nc(-c3ccc(Br)s3)n1Cc1ccccc1)sc1c(O)cccc12 [No. 68, 3-Benzyl-2-(5-bromothiophen-2-yl)-8-hydroxy-3H-benzo[4,5]thieno[2,3-d]pyrimidin-4-one]
inhibition at 1 µM [1]: 15.5% | inhibition at 10 µM [1]: 49% | inhibition at 1 µM [2]: 7.3% | inhibition at 10 µM [2]: 40.7% | inhibition at 1 µM [3]: 9% | inhibition at 10 µM [3]: 21.5%

O=C(OCCn1c(-c2cccs2)nc2sc3c(c2c1=O)CCCC3)c1cccs1 [No. 69, Thiophene-2-carboxylic acid 2-(4-oxo-2-thiohen-2-yl-5,6,7,8-tetrahydro-4H-benzo[4,5]thieno[2,3-d]pyrimidin-3-yl)-ethyl ester]
inhibition at 1 µM [1]: 10.8% | inhibition at 10 µM [1]: 11.9% | inhibition at 1 µM [2]: -1.1% | inhibition at 10 µM [2]: 3.9% | inhibition at 1 µM [3]: 4.7% | inhibition at 10 µM [3]: 10.5%

O=C(OCCn1c(-c2cccs2)nc2sc3c(c2c1=O)CCCC3=O)c1cccs1 [No. 70, Thiophene-2-carboxylic acid 2-(4,8-dioxo-2-thiohen-2-yl-5,6,7,8-tetrahydro-4H-benzo[4,5]thieno[2,3-d]pyrimidin-3-yl)-ethyl ester]
inhibition at 1 µM [1]: 13.1% | inhibition at 10 µM [1]: 17.9% | inhibition at 1 µM [2]: -4.1% | inhibition at 10 µM [2]: 44.2% | inhibition at 1 µM [3]: 15.3% | inhibition at 10 µM [3]: 39.4%

O=C(OCCn1c(-c2cccs2)nc2sc3c(c2c1=O)CCC(Br)C3=O)c1cccs1 (stereo not drawn) [No. 71, Thiophene-2-carboxylic acid 2-(7-bromo-4,8-dioxo-2-thiohen-2-yl-5,6,7,8-tetrahydro-4H-benzo[4,5]thieno[2,3-d]pyrimidin-3-yl)-ethyl ester]
inhibition at 1 µM [1]: 28.9% | inhibition at 10 µM [1]: 24.5% | inhibition at 1 µM [2]: 21.9% | inhibition at 10 µM [2]: 36% | inhibition at 1 µM [3]: 20.7% | inhibition at 10 µM [3]: 20.8%

O=C(OCCn1c(-c2cccs2)nc2sc3c(c2c1=O)CCC(Br)(Br)C3=O)c1cccs1 [No. 72, Thiophene-2-carboxylic acid 2-(7,7-dibromo-4,8-dioxo-2-thiohen-2-yl-5,6,7,8-tetrahydro-4H-benzo[4,5]thieno[2,3-d]pyrimidin-3-yl)-ethyl ester]
inhibition at 1 µM [1]: 18% | inhibition at 10 µM [1]: 53.9% | inhibition at 1 µM [2]: 16.1% | inhibition at 10 µM [2]: 64.4% | inhibition at 1 µM [3]: 15.3% | inhibition at 10 µM [3]: 15.2%

O=C(OCCn1c(-c2cccs2)nc2sc3c(O)cccc3c2c1=O)c1cccs1 [No. 73, Thiophene-2-carboxylic acid 2-(8-hydroxy-4-oxo-2-thiohen-2-yl-4H-benzo[4,5]thieno[2,3-d]pyrimidin-3-yl)-ethyl ester]
inhibition at 1 µM [1]: 58.3% | inhibition at 10 µM [1]: 90.5% | inhibition at 1 µM [2]: 37.9% | inhibition at 10 µM [2]: 82.6% | inhibition at 1 µM [3]: 26.8% | inhibition at 10 µM [3]: 32.8%

COCCn1c(-c2cccs2)nc2sc3c(c2c1=O)CCCC3 [No. 74, 3-(2-Methoxyethyl)-2-thiophen-2-yl-5,6,7,8-tetrahydro-3H-benzo[4,5]thieno[2,3-d]pyrimidin-4-one]
inhibition at 1 µM [1]: 33.2% | inhibition at 10 µM [1]: 26.1% | inhibition at 1 µM [2]: 8.3% | inhibition at 10 µM [2]: 8.3% | inhibition at 1 µM [3]: 11.7% | inhibition at 10 µM [3]: 12.2%

COCCn1c(-c2cccs2)nc2sc3c(c2c1=O)CCCC3=O [No. 75, 3-(2-Methoxyethyl)-2-thiophen-2-yl-6,7-dihydro-3H,5H-benzo[4,5]thieno[2,3-d]pyrimidine-4,8-dione]
inhibition at 1 µM [1]: 20.2% | inhibition at 10 µM [1]: 23.1% | inhibition at 1 µM [2]: 5% | inhibition at 10 µM [2]: 17% | inhibition at 1 µM [3]: 14.5% | inhibition at 10 µM [3]: 11.9%

COCCn1c(-c2cccs2)nc2sc3c(c2c1=O)CCC(Br)C3=O (stereo not drawn) [No. 76, 7-Bromo-3-(2-methoxyethyl)-2-thiophen-2-yl-6,7-dihydro-3H,5H-benzo[4,5]thieno[2,3-d]pyrimidine-4,8-dione]
inhibition at 1 µM [1]: 44.6% | inhibition at 10 µM [1]: 43.4% | inhibition at 1 µM [2]: 47.1% | inhibition at 10 µM [2]: 81.4% | inhibition at 1 µM [3]: 35.8% | inhibition at 10 µM [3]: 44.1%

COc1cccc(-c2nc3sc4c(c3c(=O)n2Cc2ccccc2)CCCC4)c1 [No. 78, 3-Benzyl-2-(m-methoxyphenyl)-5,6,7,8-tetrahydro-3H-benzo[4,5]thieno[2,3-d]pyrimidin-4-one]
inhibition at 1 µM [1]: 9.1% | inhibition at 10 µM [1]: 7.8% | inhibition at 1 µM [2]: -4.3% | inhibition at 10 µM [2]: 27.6% | inhibition at 1 µM [3]: 7.1% | inhibition at 10 µM [3]: 28.5%

COc1cccc(-c2nc3sc4c(c3c(=O)n2Cc2ccccc2)CCCC4=O)c1 [No. 79, 3-Benzyl-2-(m-methoxyphenyl)-6,7-dihydro-3H,5H-benzo[4,5]thieno[2,3-d]pyrimidine-4,8-dione]
inhibition at 1 µM [1]: 34.4% | inhibition at 10 µM [1]: 31.6% | inhibition at 1 µM [2]: 21.9% | inhibition at 10 µM [2]: 59.7% | inhibition at 1 µM [3]: 26.6% | inhibition at 10 µM [3]: 39.1%

COc1cccc(-c2nc3sc4c(c3c(=O)n2Cc2ccccc2)CCC(Br)C4=O)c1 (stereo not drawn) [No. 80, 3-Benzyl-7-bromo-2-(m-methoxyphenyl)-6,7-dihydro-3H,5H-benzo[4,5]thieno[2,3-d]pyrimidine-4,8-dione]
inhibition at 1 µM [1]: 47.3% | inhibition at 10 µM [1]: 51% | inhibition at 1 µM [2]: 22.7% | inhibition at 10 µM [2]: 35.4% | inhibition at 1 µM [3]: 37% | inhibition at 10 µM [3]: 39.3%

COc1cccc(-c2nc3sc4c(c3c(=O)n2Cc2ccccc2)CCC(Br)(Br)C4=O)c1 [No. 81, 3-Benzyl-7,7-dibromo-2-(m-methoxyphenyl)-6,7-dihydro-3H,5H-benzo[4,5]thieno[2,3-d]pyrimidine-4,8-dione]
inhibition at 1 µM [1]: 32.1% | inhibition at 10 µM [1]: 35.6% | inhibition at 1 µM [2]: 7.8% | inhibition at 10 µM [2]: 26.2% | inhibition at 1 µM [3]: 33.1% | inhibition at 10 µM [3]: 16.8%

COc1cccc(-c2nc3sc4c(O)cccc4c3c(=O)n2Cc2ccccc2)c1 [No. 83, 3-Benzyl-8-hydroxy-2-(m-methoxyphenyl)-3H-benzo[4,5]thieno[2,3-d]pyrimidin-4-one]
inhibition at 1 µM [1]: 26.1% | inhibition at 10 µM [1]: 60.1% | inhibition at 1 µM [2]: 13.5% | inhibition at 10 µM [2]: 21% | inhibition at 1 µM [3]: 25.4% | inhibition at 10 µM [3]: 26.3%

COc1cccc(-c2nc3sc4c(OC(C)=O)cccc4c3c(=O)n2Cc2ccccc2)c1 [No. 84, Acetic acid 3-benzyl-4-oxo-2-(m-methoxyphenyl)-3,4-dihydro-benzo[4,5]thieno[2,3-d]pyrimidin-8-yl ester]
inhibition at 1 µM [1]: 26.4% | inhibition at 10 µM [1]: 63.6% | inhibition at 1 µM [2]: 4% | inhibition at 10 µM [2]: 33.5% | inhibition at 1 µM [3]: 10.2% | inhibition at 10 µM [3]: 22.6%
